# From patent publication US20260262643A1, “HERBICIDAL BENZOXAZINES” (FMC CORPORATION, priority 2022, published 2026)
# How the values were obtained:
# barnyardgrass [1] = assay: Test C preemergence; format: in vivo, Echinochloa crusgalli; settings: 0 to 100 scale (0 no effect, 100 complete control)
# Summary of the method: (§1)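 Pre: seeds in loam/sand, directed soil spray. Post: 1–2 leaf plants, 2–10 cm. Cmpd in non-phytotoxic solvent + surfactant. Greenhouse 10 d; visual rating vs untreated, 0 = none, 100 = complete control.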
# blackgrass [2] = assay: Test C preemergence; format: in vivo, Alopecurus myosuroides; settings: 0 to 100 scale (0 no effect, 100 complete control)
# Summary of the method: as §1
# corn [3] = assay: Test C preemergence; format: in vivo, Zea mays; settings: 0 to 100 scale (0 no effect, 100 complete control)
# Summary of the method: as §1
# green foxtail [4] = assay: Test C preemergence; format: in vivo, Setaria viridis; settings: 0 to 100 scale (0 no effect, 100 complete control)
# Summary of the method: as §1
# kochia [5] = assay: Test C preemergence; format: in vivo, Bassia scoparia; settings: 0 to 100 scale (0 no effect, 100 complete control)
# Summary of the method: as §1
# oat, wild [6] = assay: Test C preemergence; format: in vivo, Avena fatua; settings: 0 to 100 scale (0 no effect, 100 complete control)
# Summary of the method: as §1
# pigweed, palmer [7] = assay: Test C preemergence; format: in vivo, Amaranthus palmeri; settings: 0 to 100 scale (0 no effect, 100 complete control)
# Summary of the method: as §1
# ragweed [8] = assay: Test C preemergence; format: in vivo, Ambrosia artemisiifolia; settings: 0 to 100 scale (0 no effect, 100 complete control)
# Summary of the method: as §1
# ryegrass, Italian [9] = assay: Test C preemergence; format: in vivo, Lolium multiflorum; settings: 0 to 100 scale (0 no effect, 100 complete control)
# Summary of the method: as §1
# soybean [10] = assay: Test C preemergence; format: in vivo, Glycine max; settings: 0 to 100 scale (0 no effect, 100 complete control)
# Summary of the method: as §1
# wheat [11] = assay: Test C preemergence; format: in vivo, Triticum aestivum; settings: 0 to 100 scale (0 no effect, 100 complete control)
# Summary of the method: as §1
# barnyardgrass [12] = assay: Test C postemergence; format: in vivo, Echinochloa crusgalli; settings: 10 days
# Summary of the method: as §1
# blackgrass [13] = assay: Test C postemergence; format: in vivo, Alopecurus myosuroides; settings: 10 days
# Summary of the method: as §1
# corn [14] = assay: Test C postemergence; format: in vivo, Zea mays; settings: 10 days
# Summary of the method: as §1
# green foxtail [15] = assay: Test C postemergence; format: in vivo, Setaria viridis; settings: 10 days
# Summary of the method: as §1
# kochia [16] = assay: Test C postemergence; format: in vivo, Bassia scoparia; settings: 10 days
# Summary of the method: as §1
# oat, wild [17] = assay: Test C postemergence; format: in vivo, Avena fatua; settings: 10 days
# Summary of the method: as §1
# pigweed, palmer [18] = assay: Test C postemergence; format: in vivo, Amaranthus palmeri; settings: 10 days
# Summary of the method: as §1
# ragweed [19] = assay: Test C postemergence; format: in vivo, Ambrosia artemisiifolia; settings: 10 days
# Summary of the method: as §1
# ryegrass, Italian [20] = assay: Test C postemergence; format: in vivo, Lolium multiflorum; settings: 10 days
# Summary of the method: as §1
# soybean [21] = assay: Test C postemergence; format: in vivo, Glycine max; settings: 10 days
# Summary of the method: as §1
# wheat [22] = assay: Test C postemergence; format: in vivo, Triticum aestivum; settings: 10 days
# Summary of the method: as §1
# galium = assay: Test C postemergence; format: in vivo, Galium aparine; settings: 10 days
# Summary of the method: as §1
# horseweed = assay: Test C postemergence; format: in vivo, Erigeron canadensis; settings: 10 days
# Summary of the method: as §1
# barnyardgrass [23] = assay: Test D flooded paddy test; format: in vivo, Echinochloa crus-galli; settings: 250 g ai/ha, applied to paddy water, visual rating after 13 to 14 days, scale 0 to 100 (0 no effect, 100 complete control)
# Summary of the method: (§2)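 2-leaf plants; flood 3 cm above soil; compound dosed into paddy water; greenhouse 13–14 d; visual rating vs controls, 0–100 (100 = complete control); dash = not tested.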
# ducksalad = assay: Test D flooded paddy test; format: in vivo, Heteranthera limosa; settings: 250 g ai/ha, applied to paddy water, visual rating after 13 to 14 days, scale 0 to 100 (0 no effect, 100 complete control)
# Summary of the method: as §2
# rice = assay: Test D flooded paddy test; format: in vivo, Oryza sativa; settings: 250 g ai/ha, applied to paddy water, visual rating after 13 to 14 days, scale 0 to 100 (0 no effect, 100 complete control)
# Summary of the method: as §2
# sedge, umbrella = assay: Test D flooded paddy test; format: in vivo, Cyperus difformis; settings: 250 g ai/ha, applied to paddy water, visual rating after 13 to 14 days, scale 0 to 100 (0 no effect, 100 complete control)
# Summary of the method: as §2
# [24] = Preemergence, 500 g ai/ha, visual rating after 10 days
# [25] = Test C, preemergence, 125 g ai/ha
# [26] = 125 g ai/ha, postemergence, 0 to 100 scale, 0 no effect, 100 complete control
# [27] = Postemergence, 500 g ai/ha, visual 0 to 100 scale (0 no effect, 100 complete control)
compound,measurement,setting,value
Cc1cc(-n2cnc(C(C)C)n2)cc(C(=O)N2C[C@H](C)Oc3c(Cl)cccc32)c1C [Compound 259],"Plant response rating, Barnyardgrass",barnyardgrass [1]; [24],90
same,Barnyardgrass plant response rating,barnyardgrass [1]; [25],30
same,"Plant response rating, Blackgrass",blackgrass [2]; [24],70
same,Blackgrass plant response rating,blackgrass [2]; [25],50
same,"Plant response rating, Corn",corn [3]; [24],30
same,Corn plant response rating,corn [3]; [25],30
same,"Plant response rating, Foxtail, Green",green foxtail [4]; [24],100
same,"Foxtail, Green plant response rating",green foxtail [4]; [25],100
same,"Plant response rating, Kochia",kochia [5]; [24],100
same,Kochia plant response rating,kochia [5]; [25],90
same,"Plant response rating, Oat, Wild","oat, wild [6]; [24]",90
same,"Oat, Wild plant response rating","oat, wild [6]; [25]",60
same,"Plant response rating, Pigweed, Palmer","pigweed, palmer [7]; [24]",100
same,"Pigweed, Palmer plant response rating","pigweed, palmer [7]; [25]",100
same,"Plant response rating, Ragweed",ragweed [8]; [24],0
same,Ragweed plant response rating,ragweed [8]; [25],30
same,"Plant response rating, Ryegrass, Italian","ryegrass, Italian [9]; [24]",100
same,"Ryegrass, Italian plant response rating","ryegrass, Italian [9]; [25]",90
same,"Plant response rating, Soybean",soybean [10]; [24],100
same,Soybean plant response rating,soybean [10]; [25],20
same,"Plant response rating, Wheat",wheat [11]; [24],90
same,Wheat plant response rating,wheat [11]; [25],50
same,"Plant response rating, Barnyardgrass",barnyardgrass [12]; [26],20
same,"Plant response rating, Barnyardgrass",barnyardgrass [12]; [27],70
same,"Plant response rating, Blackgrass",blackgrass [13]; [26],70
same,"Plant response rating, Blackgrass",blackgrass [13]; [27],80
same,"Plant response rating, Corn",corn [14]; [26],10
same,"Plant response rating, Corn",corn [14]; [27],30
same,"Plant response rating, Foxtail, Green",green foxtail [15]; [26],40
same,"Plant response rating, Foxtail, Green",green foxtail [15]; [27],90
same,"Plant response rating, Kochia",kochia [16]; [26],70
same,"Plant response rating, Kochia",kochia [16]; [27],80
same,"Plant response rating, Oat, Wild","oat, wild [17]; [26]",30
same,"Plant response rating, Oat, Wild","oat, wild [17]; [27]",30
same,"Plant response rating, Pigweed, Palmer","pigweed, palmer [18]; [26]",90
same,"Plant response rating, Pigweed, Palmer","pigweed, palmer [18]; [27]",90
same,"Plant response rating, Ragweed",ragweed [19]; [26],20
same,"Plant response rating, Ragweed",ragweed [19]; [27],50
same,"Plant response rating, Ryegrass, Italian","ryegrass, Italian [20]; [26]",30
same,"Plant response rating, Ryegrass, Italian","ryegrass, Italian [20]; [27]",50
same,"Plant response rating, Soybean",soybean [21]; [26],100
same,"Plant response rating, Soybean",soybean [21]; [27],100
same,"Plant response rating, Wheat",wheat [22]; [26],20
same,"Plant response rating, Wheat",wheat [22]; [27],20
same,"Plant response rating, Galium",galium; [26],100
same,"Plant response rating, Galium",galium; [27],100
same,"Plant response rating, Horseweed",horseweed; [26],0
same,"Plant response rating, Horseweed",horseweed; [27],0
same,"Plant response rating, Barnyardgrass (Flood)",barnyardgrass [23],0
same,"Plant response rating, Ducksalad (Flood)",ducksalad,0
same,"Plant response rating, Rice (Flood)",rice,0
same,"Plant response rating, Sedge, Umbrella (Flood)","sedge, umbrella",0
